Measured values: patent publication US20080039408A1, “Use of Oxypurinol as an Inhibitor of Anti-Neoplastic Agent-Induced Cardiotoxicity” (priority 2004, published 2008)
Where a name gives a salt, the structure may show the parent alone.

Experiments:
xanthine oxidase = xanthine oxidase (Homo sapiens, UniProt P47989); details: cited from earlier work
laboratory animals = details: all laboratory animals tested; cited from earlier work
patients = details: 4-15 years after completion of chemotherapy; cited from earlier work

Sequence of xanthine oxidase (P47989 whole entry, species assumed): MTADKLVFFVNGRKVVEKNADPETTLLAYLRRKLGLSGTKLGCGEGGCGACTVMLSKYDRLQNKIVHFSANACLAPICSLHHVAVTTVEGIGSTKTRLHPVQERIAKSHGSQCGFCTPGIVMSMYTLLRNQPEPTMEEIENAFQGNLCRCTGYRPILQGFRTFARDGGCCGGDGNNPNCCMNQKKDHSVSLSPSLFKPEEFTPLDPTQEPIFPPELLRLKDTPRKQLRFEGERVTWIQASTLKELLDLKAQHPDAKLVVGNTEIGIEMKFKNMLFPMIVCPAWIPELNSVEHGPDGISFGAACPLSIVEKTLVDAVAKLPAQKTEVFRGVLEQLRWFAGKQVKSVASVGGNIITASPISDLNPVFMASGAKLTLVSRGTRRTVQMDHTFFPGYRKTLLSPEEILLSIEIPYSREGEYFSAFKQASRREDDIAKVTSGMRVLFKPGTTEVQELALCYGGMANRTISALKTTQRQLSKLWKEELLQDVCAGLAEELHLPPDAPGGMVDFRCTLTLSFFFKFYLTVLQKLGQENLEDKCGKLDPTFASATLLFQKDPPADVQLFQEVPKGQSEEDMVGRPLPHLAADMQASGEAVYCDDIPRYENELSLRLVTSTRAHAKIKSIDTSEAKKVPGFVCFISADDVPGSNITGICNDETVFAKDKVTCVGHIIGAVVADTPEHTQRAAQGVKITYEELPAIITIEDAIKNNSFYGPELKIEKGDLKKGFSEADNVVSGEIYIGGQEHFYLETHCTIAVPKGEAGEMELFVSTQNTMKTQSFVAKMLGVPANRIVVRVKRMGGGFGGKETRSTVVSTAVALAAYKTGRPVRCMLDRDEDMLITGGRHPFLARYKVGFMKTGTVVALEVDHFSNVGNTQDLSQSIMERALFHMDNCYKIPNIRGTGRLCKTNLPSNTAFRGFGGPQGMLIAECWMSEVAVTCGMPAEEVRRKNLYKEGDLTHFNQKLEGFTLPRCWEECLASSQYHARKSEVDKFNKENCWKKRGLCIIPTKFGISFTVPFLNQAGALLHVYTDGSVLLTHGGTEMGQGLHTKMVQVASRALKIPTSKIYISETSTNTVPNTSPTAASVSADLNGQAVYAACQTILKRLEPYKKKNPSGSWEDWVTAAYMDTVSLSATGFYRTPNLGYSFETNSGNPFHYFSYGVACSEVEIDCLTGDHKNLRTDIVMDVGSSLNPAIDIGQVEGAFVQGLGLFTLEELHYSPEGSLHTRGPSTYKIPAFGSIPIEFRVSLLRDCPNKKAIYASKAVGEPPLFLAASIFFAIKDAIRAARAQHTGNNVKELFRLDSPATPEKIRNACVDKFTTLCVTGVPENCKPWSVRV
Protocol for Female CD1 mice: Female CD1 mice, weighing 20-22 g, were obtained from Charles River with implanted jugular catheters. Prior to induction of doxorubicin cardiotoxicity, the animals were randomly divided into 2 groups: • Group 1: Treatment with Oxypurinol (n=15), 26 mg/dl in the drinking water, start 3 days prior to doxorubicin dose and continue to sacrifice. • Group 2: Treatment with Vehicle (Saline) (n=10), start 3 days prior to doxorubicin dose and continue to sacrifice.
For induction of doxorubicin cardiotoxicity, doxorubicin, dissolved in saline, was injected by IV through the jugular catheter twice a week (Monday and Thursday) ten times at dose 4 mg/kg/day. Between doses 4 and 5 there was a two weeks hiatus to allow recovery of bone marrow suppression.
Seventeen mice were included in the vehicle Group 2. Two mice had jugular catheters that were nonoperable and excluded at the outset. Fifteen mice were included in the drug Group 1.
Seven surviving vehicle Group 2 (control) animals were sacrificed and 11 surviving drug Group 1 mice were sacrificed.

In the case of `Oc1ncnc2[nH]ncc12` [allopurinol, 1,5-dihydro4H-pyrazolol[3,4-d}pyrimidin-4-one monosodium salt, reference compound], the “immediate inhibition of superoxide radical production” value (xanthine oxidase) is given as “very little immediate inhibition”.

In the case of `C[C@@H](CN1CC(=O)NC(=O)C1)N1CC(=O)NC(=O)C1` [dexrazoxane], the “chronic cardiotoxicity in laboratory animals” value (laboratory animals) is given as “prevents chronic cardiotoxicity”.

For `COc1cccc2c1C(=O)c1c(O)c3c(c(O)c1C2=O)C[C@@](O)(C(=O)CO)C[C@@H]3O[C@H]1C[C@H](N)[C@H](O)[C@H](C)O1` [doxorubicin, 14-hydroxydaunomycin], the “late onset chronic cardiac events, share of patients” value (patients) is listed as 18-65%.

With `O=c1[nH]c(=O)c2c[nH]nc2[nH]1` [oxypurinol] the “cellular necrosis score, difference vs vehicle” value (Female CD1 mice; histology of surviving mice sacrificed prior to dose 4 of doxorubicin) was “not statistically significant”, the “mean cellular swelling score” value (Female CD1 mice; histology of surviving mice sacrificed prior to dose 4 of doxorubicin, 11 mice, p=0.004 vs vehicle) was 1.8±0.4 and the “deaths following 3 doses of doxorubicin” value (Female CD1 mice; oxypurinol 26 mg/dl in drinking water from 3 days before doxorubicin, doxorubicin 4 mg/kg/day IV twice a week, 15 mice in group) was 3 deaths. The “mortality vs vehicle group” value (Female CD1 mice; oxypurinol Group 1 vs vehicle Group 2, doxorubicin-treated mice) was “highly significant decrease in mortality” and the “immediate inhibition of superoxide radical production” value (xanthine oxidase) was “produces immediate inhibition”.
